These results are taken from patent US10968225B2, “Compounds and compositions for the treatment of cystic fibrosis” (Fondazione Istituto Italiano Di Tecnologia, priority 2017, dated 2021).

As usually defined, the EC50 is the concentration needed to bring the measured effect to its halfway point.

SMILES strings stand for the structures.

Type in all cases: cell-based
In test [1] the target is T1, mutant CFTR (Homo sapiens, UniProt P13569, DEL508-508).
T1 construct: expressed in transfected cells
In words: Fluorescence (HS-YFP) assay for CFTR activity, corrector assay. The following applies: CFBE41o- and FRT cells with stable expression of mutant CFTR, read-out: activity (EC50).

Test [2] has as its target T2, F508del-CFTR (Homo sapiens, UniProt P13569, DEL508-508). In words: Short-circuit current recordings on human bronchial epithelial cells. The arrangement: Human bronchial epithelial (HBE) cells obtained from CF patients (F508del/F508del genotype); endogenous in cells; host or cells: primary human bronchial epithelial cells from CF patients, F508del/F508del. The following applies: compounds tested at 1.0 µM; HBE cells from CF patients (F508del/F508del); 24 hrs treatment; CPT-cAMP plus VX-770 minus CFTRinh-172. As to the method: Short-Circuit Current Recordings on Human Bronchial Epithelial Cells
Human bronchial epithelial (HBE) cells obtained from CF patients (F508del/F508del genotype) were plated on Snapwell inserts (Code 3801, Corning Life Sciences) at a density of 500,000 cells per insert. Cells were cultured for two weeks in a differentiating medium whose compositions has been previously described (Scudieri et al., J Physiol 590:6141-6155, 2012). For the first week, the medium was kept on both apical and basolateral sides of inserts (submerged condition). For the second week, the apical medium was removed (air-liquid condition, ALC). To test the activity of correctors, cells were treated for 24 hrs with compounds dissolved in the basolateral medium. After treatment, Snapwell inserts carrying differentiated bronchial epithelia were mounted in a vertical chamber resembling an Ussing system with internal fluid circulation. Both apical and basolateral hemichambers were filled with 5 mL of a Krebs bicarbonate solution containing (in mM): 126 NaCl, 0.38 KH2PO4, 2.13 K2HPO4, 1 MgSO4, 1 CaCl2, 24 NaHCO3, and 10 glucose. Both sides were continuously bubbled with a gas mixture containing 5% CO2-95% air and the temperature of the solution was kept at 37° C. The transepithelial voltage was short-circuited with a voltage-clamp (DVC-1000, World Precision Instruments) connected to the apical and basolateral chambers via Ag/AgCl electrodes and agar bridges (1 M KCl in 1% agar). The offset between voltage electrodes and the fluid resistance were canceled before experiments. The short-circuit current was recorded with a PowerLab 4/25 (ADInstruments) analogical to digital converter connected to a Macintosh computer. […] The difference between the current measured with CPT-cAMP plus potentiator and the current remaining after CFTRinh-172 treatment ([…]ICFTR) was taken as the parameter reflecting F508del-CFTR expression in the apical membrane.
Activities of selected compounds on HBE cells tested at 1.0 µM (expressed as […]ICFTR) are illustrated in table 3 wherein +: […]ICFTR<2.0 µA; ++: 2 μA<[…]ICFTR<3.0 μA; +++: […]ICFTR>3.0 µA.

Test [3] deals with T2, F508del-CFTR. In words: Transepithelial electrical conductance (TEEC) in FRT cells. Set-up: expressed in transfected cells; host or cells: FRT cells. The following applies: compounds tested at 5.0 µM; FRT cells expressing F508del-CFTR; 24 hrs incubation; forskolin and genistein stimulation minus PPQ-102 block. As to the method: Transepithelial Electrical Conductance (TEEC)
FRT cells expressing F508del-CFTR were plated on HTS Transwell-24 well permeable supports (Code 3379, Corning Life Sciences) at a density of 200,000 cells/well. After six days, cells were incubated for 24 hrs with test correctors, vehicle, or VX-809. Compounds were dissolved in both basolateral (800 μL) and apical (300 μL) culture medium. After treatment, the culture medium was removed and replaced on both sides with a saline solution containing (in mM): 130 NaCl, 2.7 KCl, 1.5 KH2PO4, 1 CaCl2, 0.5 MgCl2, 10 glucose, 10 Na-Hepes (pH 7.4). The basolateral and apical side received 800 μL and 100 μL, respectively. The 24-well tray with cells was placed on a block heater (SBH 130D, Stuart) to keep the temperature at 37° C. during the entire experiment. After 10 min, the basal transepithelial electrical resistance (TEER) across each layer of FRT cells was measured with a STX100C electrode pair connected to an EVOM2 voltohmeter (World Precision Instruments). To stimulate F508del-CFTR, each well received (apical side) 50 μL of saline solution containing 60 μM forskolin and 150 μM genistein (final concentrations: 20 μM forskolin, 50 μM genistein). Forskolin was also pipetted in the basolateral medium to obtain the 20 μM concentration. After 10 min TEER was measured again in each well. To block F508del-CFTR function, the inhibitor PPQ-102 was used at the final concentration of 30 μM. To achieve the desired concentration, 75 μL of the apical solution in each well was replaced with an equal volume of saline solution containing 20 μM forskolin, 50 μM genistein, and 60 μM PPQ-102. After further 10 min, the transepithelial electrical resistance was measured. All values of TEER were converted to transepithelial electrical conductance (TEEC) using the formula TEEC=1/TEER. The parameter to indicate activity of F508del-CFTR in each well (ΔTEEC) was calculated from the difference in TEEC measured after maximal stimulation of F508del-CFTR with forskolin and genistein and after block with PPQ-102.
Corrector activities obtained on selected compounds tested at 5.0 µM (expressed as ΔTEEC values) are illustrated in table 2, wherein +: ΔTEEC<2000 µS; ++: 2000 µS<ΔTEEC<3000[…]S; +++: ΔTEEC>3000 µS.

T2 sequence (P13569 with tags, fused parts or gaps DEL508-508): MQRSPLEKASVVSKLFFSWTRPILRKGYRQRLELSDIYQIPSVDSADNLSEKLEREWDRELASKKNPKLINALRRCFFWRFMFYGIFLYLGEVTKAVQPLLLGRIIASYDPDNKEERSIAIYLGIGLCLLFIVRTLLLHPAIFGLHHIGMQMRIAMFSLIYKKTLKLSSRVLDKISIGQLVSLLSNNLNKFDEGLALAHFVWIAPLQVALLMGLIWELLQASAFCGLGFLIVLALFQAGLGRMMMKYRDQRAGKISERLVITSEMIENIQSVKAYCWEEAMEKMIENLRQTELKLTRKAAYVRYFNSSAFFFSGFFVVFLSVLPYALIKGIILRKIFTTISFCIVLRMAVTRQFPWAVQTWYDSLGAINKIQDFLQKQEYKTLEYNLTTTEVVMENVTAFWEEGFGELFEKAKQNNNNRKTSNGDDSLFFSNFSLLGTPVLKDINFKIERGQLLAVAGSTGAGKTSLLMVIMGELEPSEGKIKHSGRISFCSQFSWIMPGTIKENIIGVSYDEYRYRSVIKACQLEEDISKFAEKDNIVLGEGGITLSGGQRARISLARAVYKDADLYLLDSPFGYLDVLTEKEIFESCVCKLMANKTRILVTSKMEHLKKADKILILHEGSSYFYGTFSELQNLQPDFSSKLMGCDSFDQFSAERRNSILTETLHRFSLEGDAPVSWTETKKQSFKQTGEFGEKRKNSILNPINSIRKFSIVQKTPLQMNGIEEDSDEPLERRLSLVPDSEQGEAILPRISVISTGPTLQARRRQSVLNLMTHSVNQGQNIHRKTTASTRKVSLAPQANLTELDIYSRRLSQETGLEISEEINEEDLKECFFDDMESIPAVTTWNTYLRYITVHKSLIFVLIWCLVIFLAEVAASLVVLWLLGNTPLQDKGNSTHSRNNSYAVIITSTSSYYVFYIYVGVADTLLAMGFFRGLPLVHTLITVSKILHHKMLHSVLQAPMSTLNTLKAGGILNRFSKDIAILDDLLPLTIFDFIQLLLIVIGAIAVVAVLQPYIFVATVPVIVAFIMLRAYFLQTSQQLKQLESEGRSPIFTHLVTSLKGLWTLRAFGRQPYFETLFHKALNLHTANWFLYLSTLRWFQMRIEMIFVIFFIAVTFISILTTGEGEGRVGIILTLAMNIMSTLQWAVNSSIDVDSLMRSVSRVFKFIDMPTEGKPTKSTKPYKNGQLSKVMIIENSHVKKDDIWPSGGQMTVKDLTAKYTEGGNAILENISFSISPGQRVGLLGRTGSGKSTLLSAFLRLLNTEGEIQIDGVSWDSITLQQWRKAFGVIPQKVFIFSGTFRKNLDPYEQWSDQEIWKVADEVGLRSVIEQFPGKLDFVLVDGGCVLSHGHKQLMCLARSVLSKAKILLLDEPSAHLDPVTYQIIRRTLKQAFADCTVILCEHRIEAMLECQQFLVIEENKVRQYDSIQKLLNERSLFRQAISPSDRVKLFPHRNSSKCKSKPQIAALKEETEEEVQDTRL
T1 sequence (P13569 with tags, fused parts or gaps DEL508-508): as above

On to `CN(C(=O)c1cccc(-n2nc(C(F)(F)F)c3c2CC2CCC3N2C(=O)OC(C)(C)C)c1)c1ccc2c(c1)OCO2` (racemic) [Compound 018, tert-Butyl 1-(3-(benzo[d][1,3]dioxol-5-yl(methyl)carbamoyl)phenyl)-3-(trifluoromethyl)-1,4,5,6,7,8-hexahydro-4,7-epiminocyclohepta[c]pyrazole-9-carboxylate], for which the concentration giving a half-maximal response (EC50) in test [1] is below 1000 nM. For the same molecule, the “activity on HBE cells (expressed as […]ICFTR)” value (from here on “activity on HBE cells”) in test [2] was “+++ ([…]ICFTR>3.0 µA)”. The “Corrector activity (expressed as ΔTEEC values)” value in test [3] is given as “+++ (ΔTEEC>3000 µS)”.
On the same counts, the results for `CN1CCc2c(c(C(F)(F)F)nn2-c2cccc(C(=O)N(C)c3ccc4c(c3)OCO4)c2)C1` [Compound 003, N-(1,3-Benzodioxol-5-yl)-N-methyl-3-[5-methyl-3-(trifluoromethyl)-6,7-dihydro-4H-pyrazolo[4,3-c]pyridin-1-yl]benzamide] are below 1000 nM, “++ (2 μA<[…]ICFTR<3.0 μA)” and “++ (2000 µS<ΔTEEC<3000[…]S)”.
On the same counts, the results for `CN(C(=O)c1cccc(-n2nc(C(F)(F)F)c3c2CCN(C(=O)Nc2ccccc2)C3)c1)c1ccc2c(c1)OCO2` [Compound 010, 1-[3-[1,3-Benzodioxol-5-yl(methyl)carbamoyl]phenyl]-N-phenyl-3-(trifluoromethyl)-6,7-dihydro-4H-pyrazolo[4,3-c] pyridine-5-carboxamide] are below 1000 nM, “++ (2 μA<[…]ICFTR<3.0 μA)” and “++ (2000 µS<ΔTEEC<3000[…]S)”.
Taken in the same sequence, the figures for `CN(C(=O)c1cccc(-n2nc(C(F)(F)F)c3c2CCN(C(=O)C(C)(C)C)C3)c1)c1ccc2c(c1)OCO2` [Compound 011, N-(1,3-Benzodioxol-5-yl)-3-[5-(2,2-dimethylpropanoyl)-3-(trifluoromethyl)-6,7-dihydro-4H-pyrazolo[4,3-c]pyridin-1-yl]-N-methyl-benzamide] were below 1000 nM, “++ (2 μA<[…]ICFTR<3.0 μA)” and “++ (2000 µS<ΔTEEC<3000[…]S)”.
Turning to `CN(C(=O)c1cccc(-n2nc(C(F)(F)F)c3c2CCN(Cc2ccccc2)C3)c1)c1ccc2c(c1)OCO2` [Compound 012, N-(1,3-Benzodioxol-5-yl)-3-[5-benzyl-3-(trifluoromethyl)-6,7-dihydro-4H-pyrazolo[4,3-c]pyridin-1-yl]-N-methyl-benzamide], the concentration for a half-maximal effect (EC50) in test [1] is below 1000 nM. In addition, the “activity on HBE cells” value in test [2] is recorded as “+ ([…]ICFTR<2.0 µA)”. The “Corrector activity (expressed as ΔTEEC values)” value in test [3] was “++ (2000 µS<ΔTEEC<3000[…]S)”.
In the case of `COC(=O)c1cccc(CN2CCc3c(c(C(F)(F)F)nn3-c3cccc(C(=O)N(C)c4ccc5c(c4)OCO5)c3)C2)c1` [Compound 020, Methyl 3-[[1-[3-[1,3-benzodioxol-5-yl(methyl)carbamoyl]phenyl]-3-(trifluoromethyl)-6,7-dihydro-4H-pyrazolo[4,3-c]pyridin-5-yl]methyl]benzoate], the concentration for a half-maximal effect (EC50) in test [1] is below 1000 nM. Moreover, the “activity on HBE cells” value in test [2] is on record as “++ (2 μA<[…]ICFTR<3.0 μA)”. In addition, in test [3], the “Corrector activity (expressed as ΔTEEC values)” value is on record as “+++ (ΔTEEC>3000 µS)”.
On the same counts, the results for `CN(C(=O)c1cccc(-n2nc(C(F)(F)F)c3c2CCN(C2CCC2)C3)c1)c1ccc2c(c1)OCO2` [Compound 032, N-(1,3-Benzodioxol-5-yl)-3-[5-cyclobutyl-3-(trifluoromethyl)-6,7-dihydro-4H-pyrazolo[4,3-c]pyridin-1-yl]-N-methyl-benzamide] are below 1000 nM, “++ (2 μA<[…]ICFTR<3.0 μA)” and “++ (2000 µS<ΔTEEC<3000[…]S)”.
